Source: US5585367A (priority 1990, dated 1996)
In brackets after ≈: the same amount, converted by molar mass. Several values for one entry are separate records, joined by “and”; a condition that tells them apart may be missing. Identical values can stand only once. Like-named read-outs stand apart in the source and are kept apart here.

Columns and labels:
[1] = Treatment of three sound volunteers for 30 days; format: in vivo, human; conditions: 1500 mgr a day (three portions of 500 mgr)
Experimental: (§1) Three sound volunteers were treated for 30 days with 1500 mgr a day of a azobisformamide in three portions of 500 mgr.

[2] = B. L. OSER et al. (1965); cited from earlier work
T4 lymphocytes = assay: Treatment of three patients presenting different stages of AIDS; format: in vivo, human
Experimental: as §1
On the other handy three patients presenting different stages of AIDS were also treated with azobisformamide in the same dosages as he sound volunteers.
The first patient in final phase presented at least 30 T4 lymphocytes/mm^3, abundant diarrheas and a complete space-time disorientation.
The second patient in "ARC" phase presented a lymphocytar T4 population of 190/ mm^3, in constant decrease, as well as occasional diarrheas and anal herpes.

[3] = system: Vesicular Stomatitis Virus (VSV); assay: microbe, parasite or virus in culture; format: cell-based; parameters: TCID 50: unit not given here; conditions: for log reduction at 50 µg/mL / log reduction at 100 µg/mL / log reduction at 150 µg/mL / log reduction at 250 µg/mL: Vesicular stomatitis virus, Vero
pepsin = assay: Inhibition of pepsin; format: biochemical
clinical = conditions: human, in vivo, po
HIV-1 Wild C = assay: Inhibition of HIV replication in PBL's; format: cell-based; conditions: Human immunodeficiency virus 1
Tat = Tat antagonism
[4] = single dose of 3 g, one volunteer
CD4 lymphocyte [5] = assay: Treatment of one patient with stage IV AIDS
[6] = Tolerability and effectiveness of single doses; format: in vivo, human; conditions: single doses of between 7 and 140 mg per kg body weight
[7] = oral
HIV-1 Wild F = assay: Inhibition of HIV replication in PBL's; format: cell-based; conditions: Human immunodeficiency virus 1, Wild F (resistant to AZT, syncytium inducer)
wild HIV-1 strains = assay: Inhibition of HIV replication, wild HIV-1 strains; format: cell-based; conditions: for IC90: Human immunodeficiency virus 1, wild strains from patients
[8] = system: genes "GAG", "LTR" and "ENV" of the HIV-1 provirus; assay: Integration of viral genome into chromosomic DNA of Supt-1 cells (PCR); format: cell-based; conditions: 35 μgr/ml; virus incubated for 15 minutes
Experimental: By means of a genetic amplification through a thermostable polymerase, the presence of genes "GAG", "LTR" and "ENV" of the HIV-1 provirus is evidenced. This method is called P.C.R. Polymerase chain Reaction) (Chin-Yih Ou et al., Sciences 239, 295-297, 1988).
Said method is applied for detecting HIV-1 provirus in the genome of Supt-1 cells inoculated with HIV-1 virus incubated with […] (dilution 1/100), as described in Example 8
Amplified oligonucleotides, UV visible by means of ethidium bromide appear only in the tubes corresponding to an inoculation with HIV-1 viruses which were not treated with the active substance.
One proceeds as in Example 11(c). The search of genes "GAG", "LTR" and "ENV" has been made in cellular cultures inoculated with a virus incubated for 15 minutes with the active substance. This search is appeared as being negative, and thus it can be concluded that 1.1'-azobisformamide at the dosage of 35 μgr/ml protects the cells against infection by HIV-1.
Examples 10c and 11c disclose a more accurate method than the ELISA test for examining whether the inoculated cells contain HIV-1 at the end of the assay, i.e., the PCR-Method.

HIV-1 Wild G = assay: Inhibition of HIV replication in PBL's; format: cell-based; conditions: Human immunodeficiency virus 1, Wild G (resistant to AZT, syncytium inducer)
CD4 lymphocyte [9] = assay: Treatment of four patients with advanced AIDS, CD4 lymphocyte counts (FIG. 1); format: in vivo, human; conditions: all dosage regimens combined
Experimental: Four patients with advanced AIDS have been treated with ADA. One patient has been treated during two periods, i.e., treated was restarted after a return to baseline subsequent to the withdrawal of ADA. The patients received capsules containing 500 mg. The dosage regimen was 500 mg three times a day except during the second treatment period in the patient who is also the patient of Example 27 where the dosage regimen was increased to 1 gram three times a day. The graph represents the median value of all CD4 lymphocyte counts measured in the patients. All dosage regimens are combined. There were five periods of ADA treatment. Due to the small number of values, medians were calculated by carrying forward the last values of the patients with no data point in the corresponding treatment week. Values of patients who dropped out of the study were carried forward. The linear regression is represented by the equation Y=77.2 +4.8 X, where Y is the absolute CD4 […] and X is the number of weeks after start of ADA treatment. The correlation coefficient is 0.79.

NC(=O)N=NC(N)=O [ADA, 1,1'-azobisformamide]
hematological parameters [1]: remained perfectly normal
secondary effect [1]: No secondary effect was reported
toxicity for the humans [2]: absence of toxicity
coherent talking (T4 lymphocytes; first patient, day 30): recovered their possibility of coherent talking
diarrhea (T4 lymphocytes; first patient, day 30): the diarrhea has ended
walking autonomy (T4 lymphocytes; first patient, day 30): limited walking autonomy
lymphocytes presenting the T4 receptor (T4 lymphocytes; first patient, day 30, day 0: 5%): 9%
lymphocytes, % of white corpuscules (T4 lymphocytes; first patient, day 30, day 0: 17%): 20%
white corpuscules (T4 lymphocytes; first patient, day 30, day 0: 1850): 2600
improvement of T4 lymphocytes (T4 lymphocytes; first patient, day 30 vs day 0): 100%
T4 lymphocytes (T4 lymphocytes; second patient ("ARC" phase), day 30, before: 190): 280 T4 lymphocytes/ mm^3
diarrhea and anal herpes (T4 lymphocytes; second patient, day 30): the diarrhea had completely disappeared as well as the anal herpes
T4 lymphocytes (T4 lymphocytes; third patient (sound seropositive), day 30, before: 350): 440 T4 lymphocytes/ mm^3
TCID 50 [3]: 6.90 and 6.73 and 6.55 and 4.28 and 3.75 and 3.58 and 3.93
log reductions [3]: > 2.0
log reduction at 50 µg/mL ([3]; 10 min, read-out: Log Red): 1.05
log reduction at 100 µg/mL ([3]; 10 min, read-out: Log Red): 1.22
log reduction at 150 µg/mL ([3]; 10 min, read-out: Log Red): 1.22
log reduction at 250 µg/mL ([3]; 10 min, read-out: Log Red): 1.4
log reduction at 50 µg/mL ([3]; 1 h, read-out: Log Red): 1.4
log reduction at 100 µg/mL ([3]; 1 h, read-out: Log Red): 1.22
log reduction at 150 µg/mL ([3]; 1 h, read-out: Log Red): 1.4
log reduction at 250 µg/mL ([3]; 1 h, read-out: Log Red): 1.4
log reduction at 50 µg/mL ([3]; 20 h, read-out: Log Red): 1.75
log reduction at 100 µg/mL ([3]; 20 h, read-out: Log Red): 2.28
log reduction at 150 µg/mL ([3]; 20 h, read-out: Log Red): 2.45
log reduction at 250 µg/mL ([3]; 20 h, read-out: Log Red): 2.1
log reduction at 150 µg/mL ([3]; read-out: log reduction (strongest effect)): 2.28
inhibition of pepsin (pepsin): does not inhibit pepsin
Tmax (clinical): 1 to 1.5 h
IC50 (HIV-1 Wild C): 11.1 µg/mL (≈ 95.6 µM)
IC90 (HIV-1 Wild C): 18 µg/mL (≈ 155 µM)
Tat antagonism (Tat): not a Tat-antagonist
absorption and excretion [4]: can be absorbed and even excreted in its active form
absolute CD4 lymphocyte count (CD4 lymphocyte [5]; 500 mg three times a day, 26-week period, from 77): 144 cells/mm^3
diarrhea (CD4 lymphocyte [5]; 12 weeks after restarting ADA): free of diarrhea
weight (CD4 lymphocyte [5]; 12 weeks after restarting ADA): gained considerable weight
weight and diarrhea after withdrawal of ADA (CD4 lymphocyte [5]; RT medication without ADA): lost weight and developed intractable diarrhea
CD4 lymphocyte count after withdrawal of ADA (CD4 lymphocyte [5]; RT medication without ADA, within two months): returned to baseline
CD4 lymphocyte count (CD4 lymphocyte [5]; fifteen weeks after restarting ADA): 190 cells/mm^3
adverse effects that could be drug-related (CD4 lymphocyte [5]; occasional increases up to 2 grams three times a day): No adverse effects
CD4 lymphocyte count (CD4 lymphocyte [5]; restart at 1 gram three times a day, within two weeks): 144 cells/mm^3
tolerability and effectiveness [6]: tolerable and effective
absorption [7]: absorbed via the gastro-intestinal route
distribution [7]: distributes readily to intracellular compartments
IC50 (HIV-1 Wild F): 6.4 µg/mL (≈ 55.1 µM)
IC90 (HIV-1 Wild F): 19 µg/mL (≈ 164 µM)
IC90 (wild HIV-1 strains; read-out: IC90 range): 17.4 to 21.2 µg/mL (≈ 150 to 183 µM)
IC90 (wild HIV-1 strains; read-out: median IC90 (complete inhibition, ≥90% inhibition)): 18 µg/mL (≈ 155 µM)
inhibition of the replication of wild HIV-1 strains (wild HIV-1 strains; PBLs, including strains phenotypically resistant to AZT, 0.4 to 250.0 μgr/ml): inhibit the replication
search of genes "GAG", "LTR" and "ENV" [8]: negative
IC50 (HIV-1 Wild G): 11.2 µg/mL (≈ 96.5 µM)
IC90 (HIV-1 Wild G): 21.2 µg/mL (≈ 183 µM)
correlation coefficient of the CD4 regression (CD4 lymphocyte [9]): 0.79
